Results from patent publication US9486455B2, “Compounds for modulating TRPV3 function” (HYDRA BIOSCIENCES, INC., priority 2007, dated 2016).
Where two headings read alike, the source gives them in different places.

How the values were obtained:
human (h) TRPV3 = target: T1, human (h) TRPV3 (Homo sapiens, UniProt Q8NET8); test: Whole-cell patch clamp, human TRPV3-mediated currents; type: cell-based
T1 construct: expressed in transfected cells; host or cells: HEK293/TREx, tetracycline-induced
T1 sequence (Q8NET8 1-790): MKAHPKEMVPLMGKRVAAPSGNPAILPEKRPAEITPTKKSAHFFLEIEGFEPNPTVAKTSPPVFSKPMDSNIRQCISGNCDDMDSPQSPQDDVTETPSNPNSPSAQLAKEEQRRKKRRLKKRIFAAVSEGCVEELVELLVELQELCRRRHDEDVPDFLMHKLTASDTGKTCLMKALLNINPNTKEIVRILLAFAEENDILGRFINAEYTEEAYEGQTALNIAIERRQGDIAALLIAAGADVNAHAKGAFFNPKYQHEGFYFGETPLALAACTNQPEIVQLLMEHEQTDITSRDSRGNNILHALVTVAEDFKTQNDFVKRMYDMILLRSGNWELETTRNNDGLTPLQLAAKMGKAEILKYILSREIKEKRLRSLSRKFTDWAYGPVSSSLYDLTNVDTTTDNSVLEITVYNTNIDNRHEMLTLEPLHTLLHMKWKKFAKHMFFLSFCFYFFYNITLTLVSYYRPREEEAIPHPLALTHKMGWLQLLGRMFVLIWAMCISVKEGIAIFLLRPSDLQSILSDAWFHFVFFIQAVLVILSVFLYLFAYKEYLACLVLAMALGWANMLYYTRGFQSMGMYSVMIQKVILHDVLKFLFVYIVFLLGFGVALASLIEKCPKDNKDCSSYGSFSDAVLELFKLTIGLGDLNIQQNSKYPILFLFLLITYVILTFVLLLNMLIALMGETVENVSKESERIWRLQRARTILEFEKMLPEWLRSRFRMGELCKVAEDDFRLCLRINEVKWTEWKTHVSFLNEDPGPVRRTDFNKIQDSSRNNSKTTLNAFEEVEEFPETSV
Source text: (§1) Whole-cell patch clamp experiments permit the detection of currents through the TRPV3 channel in the cell line described above. A glass electrode is brought into contact with a single cell and the membrane is then ruptured, permitting control of the voltage of the cell membrane and measurement of currents flowing across the membrane using the amplifier attached to the electrode. A perfusion system permits control of the extracellular solution, including the addition of blockers and activators of the current. The current can be activated by heating this solution to 28° C. or warmer or by addition of 20 μM 2-APB to the solution.
(§2) TRPV3 cells were induced 20-48 hours, removed from growth plates, and replated at low density (to attain good single-cell physical separation) on glass coverslips for measurement. In some cases, cells were grown in low density overnight on glass coverslips. Patch clamp recordings were made in the whole-cell mode with a holding potential of −40 mV. Every 5 seconds, a voltage ramp was applied from −120 to +100 mV, 400 ms in duration. Currents elicited were quantified at −80 mV and +80 mV. The internal solution consisted of 140 mM cesium aspartate, 10 mM EGTA, 2.27 mM MgCl2, 1.91 mM CaCl2 and 10 mM HEPES, pH to 7.2 with KOH; with 50 nM calculated free Ca^2+. External solution was Ringer's solution described above. Upon addition of 2-APB or upon heating of the extracellular solution as described above, TRPV3 current was induced only in TRPV3-expressing cells and not in parental HEK293 TREx cells. […] Removal of the stimulus caused most of the current to go away, and inhibitor addition could still inhibit this current. […]
(§3) P1 refers to the Phase 1 current for human (h) and rat (r) TRPV3, and P2 refers to the Phase 2 current for human (h) and rat (r) TRPV3.

rat (r) TRPV3 = target: T2, rat (r) TRPV3 (Rattus norvegicus, UniProt Q4QYD9); test: Whole-cell patch clamp, rat TRPV3-mediated currents; type: cell-based
T2 construct: expressed in transfected cells
T2 sequence (Q4QYD9 1-791): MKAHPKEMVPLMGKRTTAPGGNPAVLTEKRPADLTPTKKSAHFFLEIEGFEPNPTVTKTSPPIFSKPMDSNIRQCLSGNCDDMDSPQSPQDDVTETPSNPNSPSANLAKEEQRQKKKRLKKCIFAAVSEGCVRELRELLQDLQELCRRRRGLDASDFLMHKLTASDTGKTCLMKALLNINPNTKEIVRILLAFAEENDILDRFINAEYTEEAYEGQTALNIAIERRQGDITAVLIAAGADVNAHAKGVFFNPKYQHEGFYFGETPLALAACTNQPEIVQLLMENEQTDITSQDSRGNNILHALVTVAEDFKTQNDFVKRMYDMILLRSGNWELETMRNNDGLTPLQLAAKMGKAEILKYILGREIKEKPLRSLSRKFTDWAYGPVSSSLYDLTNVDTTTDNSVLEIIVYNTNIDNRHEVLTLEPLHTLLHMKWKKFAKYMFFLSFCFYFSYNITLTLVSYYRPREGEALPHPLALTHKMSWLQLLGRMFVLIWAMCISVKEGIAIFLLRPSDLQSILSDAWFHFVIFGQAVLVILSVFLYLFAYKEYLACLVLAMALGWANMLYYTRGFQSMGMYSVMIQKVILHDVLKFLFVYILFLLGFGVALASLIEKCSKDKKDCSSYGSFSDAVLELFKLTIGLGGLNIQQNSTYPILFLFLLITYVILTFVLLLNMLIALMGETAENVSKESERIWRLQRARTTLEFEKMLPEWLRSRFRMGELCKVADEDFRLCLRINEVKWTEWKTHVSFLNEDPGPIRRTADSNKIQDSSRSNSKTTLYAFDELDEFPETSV
Source text: as §1, §2, §3

[1] = Phase 1 inward current, read-out: P1 In (h)
[2] = Phase 2 inward current, read-out: P2 In (h)
[3] = Phase 1 outward current, read-out: P1 Out (h)
[4] = Phase 2 outward current, read-out: P2 Out (h)
[5] = Phase 1 inward current, read-out: P1 In (r)
[6] = Phase 1 outward current, read-out: P1 Out (r)
[7] = Phase 2 inward current, read-out: P2 In (r)
[8] = Phase 2 outward current, read-out: P2 Out (r)
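Further: compounds tested at concentrations up to 30 µM.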

SMILES	IC50 (human (h) TRPV3; [1]) [nM]	IC50 (human (h) TRPV3; [2]) [nM]	IC50 (human (h) TRPV3; [3]) [nM]	IC50 (human (h) TRPV3; [4]) [nM]	IC50 (rat (r) TRPV3; [5]) [nM]	IC50 (rat (r) TRPV3; [6]) [nM]	IC50 (rat (r) TRPV3; [7]) [nM]	IC50 (rat (r) TRPV3; [8]) [nM]
COc1cccc(/C=C/c2nc3ccccc3c(=O)n2-c2c(C)cc(OCCO)cc2C)c1O [Compound 1]	≤ 1000	≤ 1000						
COc1cccc(/C=C(\C)c2nc3ccccc3c(=O)n2-c2ccccc2C)c1O [Compound 2]	≤ 5000	≤ 5000						
COc1cccc(/C=C/c2nc3ccccc3c(=O)n2-c2c(C)cc(OCCN(C)C)cc2C)c1O [Compound 3]	≤ 10000	≤ 5000						
Cc1ccccc1-n1c(-c2ccoc2)nc2ccccc2c1=O [Compound 4]	≤ 10000	≤ 10000						
Cc1ccccc1-n1c(/C=C/c2nnn[nH]2)nc2ccccc2c1=O [Compound 5]	> 10000	> 10000						
Cc1cccc(C)c1-n1c(/C=C/c2cccc3cn[nH]c23)nc2cnccc2c1=O [Compound 10]	≤ 10000		≤ 10000					
Cc1cccc(C)c1-n1c(/C=C/c2cccc(OC(F)(F)F)c2O)nc2cnccc2c1=O [Compound 12]	≤ 500	≤ 500	≤ 500	≤ 500	≤ 500	≤ 500		
COc1ccccc1-n1c(/C=C/c2cccc(OC)c2O)nc2cnccc2c1=O [Compound 13]	≤ 10000		≤ 10000					
COc1cccc(/C=C/c2nc3cnccc3c(=O)n2-c2c(C)cccc2OC)c1O [Compound 14]	≤ 500	≤ 500	≤ 500	≤ 500	≤ 500	≤ 500	≤ 500	≤ 1000
COc1nccc(/C=C/c2nc3cnccc3c(=O)n2-c2c(C)cccc2C)c1O [Compound 15]	≤ 500	≤ 500	≤ 500	≤ 500	≤ 500	≤ 500	≤ 500	≤ 500
COc1cccc(/C=C/c2nc3cnccc3c(=O)n2-c2c(C)cccc2Cl)c1O [Compound 16]	≤ 500	≤ 500	≤ 500	≤ 500	≤ 500	≤ 500	≤ 500	≤ 500
COc1cccc(-n2c(/C=C/c3cccc(OC)c3O)nc3cnccc3c2=O)c1C [Compound 17]	≤ 10000	≤ 10000	≤ 10000	≤ 10000				
CCOc1cccc(/C=C/c2nc3cnccc3c(=O)n2-c2c(F)cccc2F)c1O [Compound 18]	≤ 500	≤ 500	≤ 500	≤ 10000				
Cc1cccc(C)c1-n1c(/C=C/c2cc(Cl)ccc2O)nc2cnccc2c1=O [Compound 20]	≤ 5000		≤ 10000					
Cc1cccc(C)c1-n1c(/C=C/c2cc(OC(F)(F)F)ccc2O)nc2cnccc2c1=O [Compound 21]	≤ 10000		≤ 10000					
Cc1cccc(C)c1-n1c(/C=C/c2cc(Cl)cnc2O)nc2cnccc2c1=O [Compound 22]	≤ 10000		≤ 10000					

SMILES	IC50 (human (h) TRPV3; [1]) [nM]	IC50 (human (h) TRPV3; [2]) [nM]	IC50 (human (h) TRPV3; [3]) [nM]	IC50 (human (h) TRPV3; [4]) [nM]	IC50 (rat (r) TRPV3; [5]) [nM]	IC50 (rat (r) TRPV3; [6]) [nM]	IC50 (rat (r) TRPV3; [7]) [nM]	IC50 (rat (r) TRPV3; [8]) [nM]
Cc1ccc(O)c(/C=C/c2nc3cnccc3c(=O)n2-c2c(C)cccc2C)n1 [Compound 23]	≤ 10000		≤ 10000					
COc1cccc(/C=C/c2nc3cnccc3c(=O)n2-c2c(C)cccc2C)n1 [Compound 24]	≤ 10000		≤ 10000					
COc1cccc(/C=C/c2nc3cnccc3c(=O)n2-c2ccccc2C#N)c1O [Compound 25]	≤ 10000		≤ 5000					
COc1cc(/C=C/c2nc3cnccc3c(=O)n2-c2c(C)cccc2C)ccn1 [Compound 26]	≤ 10000		≤ 5000					
Cc1cccc(C)c1-n1c(/C=C/c2cnccc2O)nc2cnccc2c1=O [Compound 29]	≤ 10000		≤ 10000					
CCOc1cccc(C=Cc2nc3cnccc3c(=O)n2-c2ccccc2C)c1O [Compound 31]	≤ 500	≤ 500	≤ 500	≤ 500	≤ 500	≤ 500		
COc1cccc(/C=C/c2nc3ccccc3c(=O)n2-c2c(C)ccnc2C)c1O [Compound 32]	≤ 500	≤ 500	≤ 500	≤ 500	≤ 1000	≤ 1000	≤ 500	≤ 1000
COc1cccc(/C=C/c2nc3ccccc3c(=O)n2-c2c(C)cncc2C)c1O [Compound 33]	≤ 500	≤ 500	≤ 500	≤ 5000	≤ 500	≤ 500	≤ 500	≤ 500
COc1ccnc(/C=C/c2nc3ccccc3c(=O)n2-c2c(C)cccc2C)c1O [Compound 39]	≤ 10000	≤ 10000	≤ 10000	≤ 10000				
CCOc1nccc(/C=C/c2nc3ccccc3c(=O)n2-c2ccccc2C)c1O [Compound 43]	≤ 500	≤ 500	≤ 500	≤ 500	≤ 500	≤ 500	≤ 500	≤ 500
COc1cccc(NC(=O)Nc2nc3ccccc3c(=O)n2-c2c(C)cccc2C)c1O [Compound 46]	≤ 5000		≤ 5000					
COc1cccc(/C=C/c2nc3ccccc3c(=O)n2-c2c(C)cccc2OCCO)c1O [Compound 48]	≤ 500		≤ 1000	≤ 1000				
Cc1cccc(C)c1-n1c(/C=C/c2cccc(OC(C)C)c2O)nc2ccccc2c1=O [Compound 51]	≤ 500	≤ 500	≤ 500	≤ 500	≤ 500	≤ 500		
COc1ccccc1-n1c(/C=C/c2cccc(OC)c2O)nc2ccccc2c1=O [Compound 52]	≤ 500	≤ 500	≤ 500	≤ 500				
COc1cccc(C=Cc2nc3ccccc3c(=O)n2-c2c(C)cccc2C)c1OP(=O)(O)O [Compound 53]	≤ 500	≤ 500	≤ 500	≤ 500				
COc1cccc(-n2c(/C=C/c3cccc(OC)c3O)nc3ccccc3c2=O)c1 [Compound 54]	≤ 500	≤ 500	≤ 500	≤ 500				
